Reference: PubChem BioAssay AID248 (DTP/NCI, 2004)
Inconclusive results and toxic doses are left out. No stated cut-off is given here; in the data, active means T/C of 150% or more; inactive means T/C below 125%.

Test system: L1210 leukemia ip in BDF1 mice, survival T/C
Assay: NCI In Vivo Anticancer Drug Screen. Data for tumor model L1210 Leukemia (intraperitoneal) in B6D2F1 (BDF1) mice
Conditions: endpoint: mean survival time, higher = longer survival
Summary of the method: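 Antitumor effect is assessed in tumor-bearing animals. Survival in the compound arm is compared with a vehicle-dosed control arm and expressed as their quotient.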

[1] = dose: 100.0 mg/kg/injection, schedule: Q01DX009 (ip), vehicle: Klucel (hydroxypropylcellulose) (HPC)
[2] = dose: 200.0 mg/kg/injection, schedule: Q04DX003 (ip), vehicle: Klucel (hydroxypropylcellulose) (HPC)
[3] = dose: 400.0 mg/kg/injection, schedule: Q04DX003 (ip), vehicle: Klucel (hydroxypropylcellulose) (HPC)
[4] = dose: 50.0 mg/kg/injection, schedule: Q01DX009 (ip), vehicle: saline with Tween-80
[5] = dose: 100.0 mg/kg/injection, schedule: Q01DX009 (ip), vehicle: saline with Tween-80
[6] = dose: 50.0 mg/kg/injection, schedule: Q01DX001 (ip), vehicle: carboxymethylcellulose (CMC)
[7] = dose: 100.0 mg/kg/injection, schedule: Q01DX001 (ip), vehicle: carboxymethylcellulose (CMC)
[8] = dose: 200.0 mg/kg/injection, schedule: Q01DX001 (ip), vehicle: carboxymethylcellulose (CMC)
[9] = dose: 400.0 mg/kg/injection, schedule: Q01DX001 (ip), vehicle: carboxymethylcellulose (CMC)
[10] = dose: 100.0 mg/kg/injection, schedule: Q04DX003 (ip), vehicle: saline with Tween-80
[11] = dose: 200.0 mg/kg/injection, schedule: Q04DX003 (ip), vehicle: saline with Tween-80
[12] = dose: 100.0 mg/kg/injection, schedule: Q01DX001 (ip), vehicle: saline
[13] = dose: 200.0 mg/kg/injection, schedule: Q01DX001 (ip), vehicle: saline
[14] = dose: 200.0 mg/kg/injection, schedule: Q01DX009 (ip), vehicle: saline with Tween-80
[15] = dose: 400.0 mg/kg/injection, schedule: Q04DX003 (ip), vehicle: saline with Tween-80

Measured: T/C

COc1cc([N+](=O)[O-])c(/C=C2/c3cc(OC)c(OC)cc3CCN2C)cc1Br
inactive: [1] 100 % of control | dose: 100.0 mg/kg/injection, schedule: Q04DX003 (ip), vehicle: Klucel (hydroxypropylcellulose) (HPC) 90 % of control | dose: 200.0 mg/kg/injection, schedule: Q01DX009 (ip), vehicle: Klucel (hydroxypropylcellulose) (HPC) 96 % of control | [2] 96 % of control | dose: 400.0 mg/kg/injection, schedule: Q01DX009 (ip), vehicle: Klucel (hydroxypropylcellulose) (HPC) 92 % of control | [3] 95 % of control

CC(C)(CBr)COS(=O)(=O)c1ccc(Br)cc1
inactive: [4] 89 % of control | [5] 91 % of control

O=CNc1cc(Cl)cc(Cl)c1
inactive: dose: 25.0 mg/kg/injection, schedule: Q01DX009 (ip), vehicle: Klucel (hydroxypropylcellulose) (HPC) 97 % of control | dose: 50.0 mg/kg/injection, schedule: Q01DX009 (ip), vehicle: Klucel (hydroxypropylcellulose) (HPC) 94 % of control | [1] 114 % of control

CC(C)CC(CC(C)C)NCC(C)OC(=O)c1ccc(N(C)C)cc1 (stereo unspecified)
inactive: dose: 75.0 mg/kg/injection, schedule: Q01DX001 (ip), vehicle: other 101 % of control | dose: 150.0 mg/kg/injection, schedule: Q01DX001 (ip), vehicle: other 106 % of control

O=[N+]([O-])c1ccc(/C=N\NC(=S)Nc2ccc3cn[nH]c3c2)cc1
inactive: [6] 91 % of control | [7] 97 % of control | [8] 97 % of control | [9] 105 % of control

COc1ccc(C(=O)/C=C/c2ccccc2Cl)cc1
inactive: [10] 97 % of control | [11] 97 % of control

O=C(O)/C=C\C(=O)Nc1nc(NC(=O)/C=C/C(=O)O)cc(=O)[nH]1
inactive: [12] 97 % of control | [13] 100 % of control | dose: 400.0 mg/kg/injection, schedule: Q01DX001 (ip), vehicle: saline 103 % of control

Nc1ccccc1C(O)c1ccccc1 (stereo unspecified)
inactive: [12] 104 % of control | [13] 106 % of control

O=[N+]([O-])/C=C\c1cc2ccccc2c2ccccc12
inactive: [7] 94 % of control | [8] 94 % of control | [9] 94 % of control

CN(C)C1c2cccn2-c2ccccc2S(=O)(=O)C1c1ccccc1[N+](=O)[O-] (stereo unspecified)
inactive: [2] 98 % of control | [3] 96 % of control

Cc1ccc(S(=O)(=O)O)cc1.[Ag]
inactive: dose: 25.0 mg/kg/injection, schedule: Q04DX002 (ip), vehicle: saline + alcohol 92 % of control | dose: 50.0 mg/kg/injection, schedule: Q04DX002 (ip), vehicle: saline + alcohol 96 % of control

CCCOC(C)(C)CCC/C(C)=C/COc1ccc(CC)cc1
inactive: dose: 100.0 mg/kg/injection, schedule: Q04DX002 (ip), vehicle: saline with Tween-80 96 % of control | dose: 200.0 mg/kg/injection, schedule: Q04DX002 (ip), vehicle: saline with Tween-80 92 % of control | dose: 400.0 mg/kg/injection, schedule: Q04DX002 (ip), vehicle: saline with Tween-80 105 % of control

Clc1ccccc1Nc1c2ccccc2nc2ccccc12
inactive: dose: 100.0 mg/kg/injection, schedule: Q04DX003 (ip), vehicle: saline 100 % of control | dose: 200.0 mg/kg/injection, schedule: Q04DX003 (ip), vehicle: saline 102 % of control | dose: 400.0 mg/kg/injection, schedule: Q04DX003 (ip), vehicle: saline 96 % of control

CCOC(=O)N1CCc2nc3ccccc3cc21
inactive: dose: 50.0 mg/kg/injection, schedule: Q01DX009 (ip), vehicle: other 100 % of control | dose: 100.0 mg/kg/injection, schedule: Q01DX009 (ip), vehicle: other 90 % of control | dose: 200.0 mg/kg/injection, schedule: Q01DX009 (ip), vehicle: other 93 % of control

CC(CCc1ccccc1)NN (stereo unspecified)
inactive: dose: 3.12 mg/kg/injection, schedule: Q01DX009 (ip), vehicle: saline with Tween-80 98 % of control | dose: 6.25 mg/kg/injection, schedule: Q01DX009 (ip), vehicle: saline with Tween-80 96 % of control | dose: 12.5 mg/kg/injection, schedule: Q01DX009 (ip), vehicle: saline with Tween-80 90 % of control | dose: 25.0 mg/kg/injection, schedule: Q01DX009 (ip), vehicle: saline with Tween-80 96 % of control | dose: 25.0 mg/kg/injection, schedule: Q04DX003 (ip), vehicle: saline 100 % of control | [4] 91 % of control | dose: 50.0 mg/kg/injection, schedule: Q04DX003 (ip), vehicle: saline 100 % of control

CN1C(=O)C2C=C(Cl)C1c1ccccc12 (stereo unspecified)
inactive: dose: 100.0 mg/kg/injection, schedule: Q01DX001 (ip), vehicle: other 102 % of control | dose: 200.0 mg/kg/injection, schedule: Q01DX001 (ip), vehicle: other 94 % of control | dose: 400.0 mg/kg/injection, schedule: Q01DX001 (ip), vehicle: other 110 % of control

CCNC(=O)N(Cc1ccccc1)Cc1ccccc1
inactive: [5] 98 % of control | [14] 93 % of control

COc1ccc(C(O)(c2ccc(OC)cc2)c2ccccn2)cc1
inactive: [10] 95 % of control | [11] 102 % of control | [15] 91 % of control

CCCCC(CC)C1NCCO1 (stereo unspecified)
inactive: [4] 87 % of control | [5] 100 % of control | [10] 105 % of control | [14] 93 % of control | [11] 86 % of control

CCCN(CCC)CCC#N
inactive: dose: 59.0 mg/kg/injection, schedule: Q01DX009 (ip), vehicle: saline with Tween-80 100 % of control | [10] 93 % of control | dose: 118.0 mg/kg/injection, schedule: Q01DX009 (ip), vehicle: saline with Tween-80 105 % of control | [11] 93 % of control

O=[N+]([O-])c1ccc(OCCCCOc2ccccc2)cc1
inactive: dose: 100.0 mg/kg/injection, schedule: Q01DX009 (ip), vehicle: saline 110 % of control | dose: 200.0 mg/kg/injection, schedule: Q01DX009 (ip), vehicle: saline 96 % of control | dose: 400.0 mg/kg/injection, schedule: Q01DX009 (ip), vehicle: saline 92 % of control

CC(c1ccccc1)C(O)c1ccccc1 (stereo unspecified)
inactive: dose: 100.0 mg/kg/injection, schedule: Q01DX001 (ip), vehicle: saline with Tween-80 97 % of control | dose: 200.0 mg/kg/injection, schedule: Q01DX001 (ip), vehicle: saline with Tween-80 91 % of control | dose: 400.0 mg/kg/injection, schedule: Q01DX001 (ip), vehicle: saline with Tween-80 91 % of control

O=S1OCC=CCO1
inactive: [6] 108 % of control | [7] 114 % of control | [8] 105 % of control

CC(C)N(C)c1ccc(N=Nc2cc(Cl)ccc2Cl)cc1
inactive: [10] 98 % of control | [11] 102 % of control | [15] 104 % of control
